Laboratory results: patent US7868013B2, “Cycloalkyl substituted pyrimidinediamine compounds and their uses” (Rigel Pharmaceuticals, Inc., priority 2004, dated 2011)
Structures can show the parent of a compound that is named as a salt. Where two headings read alike, the source gives them in different places.

Key:
Assay type in all cases: cell-based
A549 (lung carcinoma) = test: In vitro antiproliferation assay, A549 cells (TABLE 1 6 point assay; TABLE 2)
Description: (§1) Certain compounds were tested against other cell types for their ability to inhibit proliferation in standard antiproliferation assays.

[1] = test system: H1299 (non-small cell lung carcinoma); test: In vitro antiproliferation assay, H1299 cells (TABLE 1 6 point assay; TABLE 2)
Description: as §1

[2] = test system: DU145 (prostate carcinoma); test: In vitro antiproliferation assay, DU145 cells; conditions: Homo sapiens, DU-145
Description: (§2) Cis racemic Compound 15, (1S,2R) enantiomeric Compound 15a and […] enantiomeric Compound 15b were also tested against DU145 (prostate carcinoma), HCT116 (colorectal carcinoma) and MiaPaCa-2 (pancreatic carcinoma) cell lines.
as §1

[3] = test system: MiaPaCa-2 (pancreatic carcinoma); test: In vitro antiproliferation assay, MiaPaCa-2 cells; conditions: Homo sapiens, MIA PaCa-2
Description: as §2, §1

[4] = test system: HCT116 (colorectal carcinoma); test: In vitro antiproliferation assay, HCT116 cells; conditions: Homo sapiens, HCT-116; HCT116 (colorectal carcinoma) cell line
Description: as §2

Aurora kinase-B = target: T1, Aurora kinase-B (Homo sapiens, UniProt Q96GD4); test: Functional cellular assay of Aurora kinase-B: phosphorylation of histone H3 in A549 cells
T1 construct: endogenous in cells; host or cells: A549 cells
Description: Enantiomers E1 and E2 (Compounds 60a and 60b, respectively) were tested for their ability to inhibit Aurora kinase-B in a functional cellular assay involving phosphorylation of its substrate, histone H3. For the assay, A549 cells were seeded into the wells of a microtiter tray (5000 cells/well in 100 μl F12K media) late in the afternoon on Day 1. The cells were grown overnight (37° C., 5% CO2) On Day 2, 50 μl nocodazole (1 μM in media) was added to each well, giving a final concentration of 333 nM. Cells were grown for an additional 18 hrs under the same conditions.
On Day 3, 50 μl aliguots of varying concentrations of test compound were added to the wells Test compounds were prepared by 2-fold serial dilution of a […] stock (in DMSO). The diluted compounds in DMSO were then further diluted 1:50 with media to yield a final solution containing 4× test compound, 98% media, 2% DMSO. After incubation, the media/test compound was washed and the cells fixed with 2% paraformaldehyde (in Dulbecco's phosphate buffered saline “DPBS”; 25 μl per well; […] incubation). […] The cells were then stained with a secondary antibody labeled with a fluorescent dye (secondary antibody donkey anti-mouse AlexFluor 488 (Invitrogen Molecular Probes; 1:2000) and DAPI (1:15,000 of 1 mg/ml stock) for 1 hr at room temperature, washed three times with DPBS (200 μl/well) and stored under DPBS (100 μl/well) at 4° C. until ready for analysis.
A Zeiss Axiovert S100 inverted fluorescent microscope with a Plan-NEOFLUAR 10× objective, a Hamamatsu Lightningcure 200 Mercury-Xenon light source and an Omega Optical XF57 quad filter was used for all data collection. […] Images were captured and analyzed in 12-bit format using segmentation and morphological routines contained in the Image Pro software package. Identified nuclei were counted and pixel data for each cell along with experimental conditions was stored in a database using MySQL 4.0.14. […]
For phospho-histone H3 analysis the data is converted to Facs files and analysed using FlowJo. […]

[5] = test system: a variety of tumor cell types; test: In vitro antiproliferation assays against a variety of tumor cell types (stereoisomer comparison)
Description: Moreover, it has been discovered that the enantiomer corresponding to the (1R,2R,3S,4S) diastereomer of structural formula (IVa) is largely responsible for the potency of the exo-exo cis racemate.
as §1

[6] = test system: COLO 205 (colorectal adenocarcinoma); test: In vitro antiproliferation assay, COLO 205 cells; conditions: Homo sapiens, COLO 205; Colo205
Description: as §1

H7299 = test: In vitro antiproliferation assay, H7299 cells
Description: as §1

[7] = test system: HELA (cervical adenocarcinoma); test: In vitro antiproliferation assay, HELA cells; conditions: Homo sapiens, HeLa
Description: as §1

[8] = test system: HL160 (promyeloblast promyelocytic leukemia); test: In vitro antiproliferation assay, HL160 cells
Description: as §1

[9] = test system: K562 (bone marrow chronic myelogenous leukemia); test: In vitro antiproliferation assay, K562 cells; conditions: Homo sapiens
Description: as §1

[10] = test system: L1210 (mouse lymphocytic leukemia); test: In vitro antiproliferation assay, L1210 cells; conditions: Mus musculus
Description: as §1

[11] = test system: MOLT3 (T lymphoblast acute lymphoblastic leukemia); test: In vitro antiproliferation assay, MOLT3 cells; conditions: Homo sapiens, MOLT-3
Description: as §1

[12] = test system: MOLT4 (T lymphoblast acute lymphoblastic leukemia); test: In vitro antiproliferation assay, MOLT4 cells; conditions: Homo sapiens, MOLT-4
Description: as §1

[13] = test system: PC3 (prostate adenocarcinoma); test: In vitro antiproliferation assay, PC3 cells; conditions: Homo sapiens, PC-3
Description: as §1

[14] = test system: SW620 (colorectal adenocarcinoma); test: In vitro antiproliferation assay, SW620 cells; conditions: Homo sapiens, SW-620
Description: as §1

[15] = test system: THP-1 (monocyte acute monocytic leukemia); test: In vitro antiproliferation assay, THP-1 cells; conditions: Homo sapiens
Description: as §1

U2OS (bone osteosarcoma) = test: In vitro antiproliferation assay, U2OS cells; conditions: Homo sapiens, U2OS; U20S
Description: as §1

[16] = test system: U937 (histiocytic lymphoma); test: In vitro antiproliferation assay, U937 cells; conditions: Homo sapiens, U-937
Description: as §1

[17] = test system: ASPC-1 (pancreatic adenocarcinoma); test: In vitro antiproliferation assay, ASPC-1 cells; conditions: Homo sapiens, ASPC1
Description: as §1

[18] = Homo sapiens, A549, 6 point assay, A549 cells, read-out: IC50, A549 cells
[19] = Homo sapiens, NCI-H1299, 6 point assay, H1299 cells, read-out: IC50, H1299 cells
[20] = DU145 (prostate carcinoma) cell line, read-out: IC50
[21] = MiaPaCa-2 (pancreatic carcinoma) cell line, read-out: IC50
[22] = Homo sapiens, A549, A549, read-out: In Vitro IC50
[23] = Homo sapiens, NCI-H1299, H1299, read-out: In Vitro IC50
[24] = Miapaca2, read-out: In Vitro IC50
[25] = 6 point assay, A549 cells, read-out: IC50, A549 cells
[26] = 6 point assay, H1299 cells, read-out: IC50, H1299 cells

T1 sequence (Q96GD4 whole entry): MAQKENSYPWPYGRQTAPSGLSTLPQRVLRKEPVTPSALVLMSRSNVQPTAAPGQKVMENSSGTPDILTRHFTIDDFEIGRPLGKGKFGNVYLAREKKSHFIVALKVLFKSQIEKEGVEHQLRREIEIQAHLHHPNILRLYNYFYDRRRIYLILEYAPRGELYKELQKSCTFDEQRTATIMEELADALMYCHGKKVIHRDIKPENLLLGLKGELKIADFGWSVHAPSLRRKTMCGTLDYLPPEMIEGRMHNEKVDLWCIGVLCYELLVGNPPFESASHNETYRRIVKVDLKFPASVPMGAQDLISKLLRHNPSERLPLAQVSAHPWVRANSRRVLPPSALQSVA

IC50 (A549 (lung carcinoma); [18]) [nM]	IC50 [1, 19] [nM]	IC50 [3, 21] [nM]	IC50 [4] [nM]	IC50 [6] [nM]	IC50 [8] [nM]	IC50 [9] [nM]	IC50 [10] [nM]	IC50 [3, 24] [nM]	IC50 [11] [nM]	IC50 [12] [nM]	IC50 [14] [nM]	IC50 [15] [nM]	IC50 [16] [nM]	SMILES	also measured
100 to 1000	100 to 1000	< 1000	< 1000											Cc1cc(Nc2ncc(F)c(NC3CCCC3C(N)=O)n2)ccc1N1CCN(C)CC1 (racemic) [Compound 15, Racemic-cis-N4-(2-Aminocarbonylcyclopent-1-yl)-5-fluoro-N2-[4-(4-methylpiperazin-1-yl)-3-methylphenyl]-2,4-pyrimidinediamine]	IC50 [2, 20]: < 1000 nM
100 to 1000	100 to 1000	< 1000	< 1000											Cc1cc(Nc2ncc(F)c(N[C@H]3CCC[C@H]3C(N)=O)n2)ccc1N1CCN(C)CC1 (stereo in doubt) [Compound 15a, (1S,2R)—N4-(2-Aminocarbonylcyclopent-1-yl)-5-fluoro-N2-[4-(4-methylpiperazin-1-yl)-3-methylphenyl]-2,4-pyrimidinediamine]	
														Cc1cc(Nc2ncc(F)c(NC3C4C=CC(C4)C3C(N)=O)n2)ccc1N1CCN(C)CC1 [(1R,2R,3S,4S) diastereomer, N4-(3-aminocarbonylbicyclo[2.2.1]hept-5-en-2-yl)-5-fluoro-N2-[3-methyl-4-(4-methylpiperazin-1-yl)phenyl]-2,4-pyrimidinediamine]	Result in cell-based inhibition assays against Aurora kinase B compared to the (1S,2S,3R,4R) diastereomer (Aurora kinase-B; in words): similarly superior results; Potency relative to the endo-endo racemate ([5]; (1R,2R,3S,4S) diastereomer, more potent): 20-50 times; Potency relative to the (1S,2S,3R,4R) diastereomer ([5]; more potent): approximately 1000 fold; IC50s when tested as isolated stereoisomers ([5]; range in words, same cell lines): nanomolar range
1000 to 10000	1000 to 10000			> 1000	> 1000	> 1000	> 1000	> 1000	> 1000	> 1000	> 1000	≤ 1000	> 1000	Cc1cc(Nc2ncc(F)c(NC3C(C(N)=O)[C@H]4C=C[C@@H]3C4)n2)ccc1N1CCN(C)CC1 (stereo in doubt) [Compound 60b, (1S,2R,3S,4R)—N4-(3-Aminocarbonylbicyclo[2.2.1]hept-5-en-2-yl)-5-fluoro-N2-[3-methyl-4-(4-methylpiperazin-1-yl)phenyl]-2,4-pyrimidinediamine]	IC50 (A549 (lung carcinoma); [22]): > 1000 nM; IC50 [1, 23]: > 1000 nM; IC50 ([2]; DU145, read-out: In Vitro IC50): ≤ 1000 nM; IC50 (H7299): > 1000 nM; IC50 [7]: > 1000 nM; IC50 [13]: > 1000 nM; IC50 (U2OS (bone osteosarcoma)): ≤ 1000 nM; IC50 (Aurora kinase-B; A549 cells, phospho-histone H3, read-out: IC50 of Aurora kinase-B inhibition): 2490 nM
				≤ 1000	≤ 1000	> 1000	≤ 1000	≤ 1000	≤ 1000	≤ 1000	≤ 1000	≤ 1000	≤ 1000	Cc1cc(Nc2ncc(F)c(N[C@@H]3CCC[C@@H]3C(N)=O)n2)ccc1N1CCN(C)CC1 [compound 222, (1R,2S)-N4-(2-Aminocarbonylcyclopent-1-yl)-5-fluoro-N2-[3-methyl-4-(4-methylpiperazin-1-yl)phenyl]-2,4-pyrimidinediamine Bis Hydrogen Chloride Salt]	IC50 (A549 (lung carcinoma); [25]): 100 to 1000 nM; IC50 (A549 (lung carcinoma); [22]): ≤ 1000 nM; IC50 [1, 26]: 100 to 1000 nM; IC50 [1, 23]: ≤ 1000 nM
														Cc1cc(Nc2ncc(F)c(NC3C4C=CC(C4)C3C(N)=O)n2)ccc1N1CCN(C)CC1 (racemic) [Compound 60r2, Racemic-(2-endo,3-endo)-N4-(3-aminocarbonylbicyclo[2.2.1]hept-5-en-2-yl)-5-fluoro-N2-[3-methyl-4-(4-methylpiperazin-1-yl)phenyl]-2,4-pyrimidinediamine]	IC50 (A549 (lung carcinoma); [25]): 100 to 1000 nM; IC50 (A549 (lung carcinoma); A549, read-out: In Vitro IC50): ≤ 1000 nM; IC50 [1, 26]: 100 to 1000 nM; IC50 (H7299): ≤ 1000 nM
1000 to 10000	1000 to 10000	< 5000	< 5000											Cc1cc(Nc2ncc(F)c(N[C@@H]3CCC[C@@H]3C(N)=O)n2)ccc1N1CCN(C)CC1 (stereo in doubt) [Compound 15b, (1R,2S)—N4-(2-Aminocarbonylcyclopent-1-yl)-5-fluoro-N2-[4-(4-methylpiperazin-1-yl)-3-methylphenyl]-2,4-pyrimidinediamine]	IC50 [2, 20]: < 5000 nM

SMILES	IC50 (A549 (lung carcinoma); [18]) [nM]	IC50 [1, 19] [nM]	IC50 [3, 21] [nM]	IC50 [4] [nM]	IC50 [6] [nM]	IC50 [8] [nM]	IC50 [9] [nM]	IC50 [10] [nM]	IC50 [3, 24] [nM]	IC50 [11] [nM]	IC50 [12] [nM]	IC50 [14] [nM]	IC50 [15] [nM]	IC50 [16] [nM]	also measured
Cc1cc(Nc2ncc(F)c(NC3C4C=CC(C4)C3C(N)=O)n2)ccc1N1CCN(C)CC1 (racemic) [compound 221, Racemic-(2-exo, 3-exo)-N4-(3-aminocarbonylbicyclo[2.2.1]hept-5-en-2-yl)-5-fluoro-N2-[3-methyl-4-(4-methylpiparazin-1-yl)phenyl]-2,4-pyrimidinediamine]	≤ 100	≤ 100			≤ 10	≤ 10	≤ 1000	≤ 1000	≤ 10	≤ 10	≤ 10	≤ 20	≤ 20	≤ 10	IC50 (A549 (lung carcinoma); A549, read-out: In Vitro IC50): ≤ 10 nM; IC50 ([1]; H1299, read-out: In Vitro IC50): ≤ 20 nM; IC50 [17]: ≤ 20 nM; IC50 ([2]; DU145, read-out: In Vitro IC50): ≤ 10 nM; IC50 [7]: ≤ 10 nM; IC50 (U2OS (bone osteosarcoma)): ≤ 20 nM
